Inhibition of growth and IC50 data for 18 compounds are collected here from ChEMBL document CHEMBL4732119, “Design, synthesis and pharmacological evaluation of bicyclic and tetracyclic pyridopyrimidinone analogues as new KRAS inhibitors” (Eur J Med Chem, 2021).

Usually IC50 stands for the concentration that gives 50% inhibition.

Experiment [1] deals with MIA PaCa-2. Put plainly: Antiproliferative activity against human MIA PaCa-2 cells harboring KRAS G12C mutant assessed as growth inhibition at 10 uM measured after 72 hrs by CCK8 assay relative to control. Format: functional. Conditions: Homo sapiens, MIA PaCa-2, read-out: GI. On the technique in general: Formazan colour is commonly taken as a measure of viable cells.
Experiment [2] has as its system A549. Put plainly: Antiproliferative activity against human A549 cells harboring KRAS G12S mutant assessed as growth inhibition at 0.1 uM measured after 72 hrs by SRB assay relative to control. The note with it: Homo sapiens, A549, read-out: GI. Format: functional. In general terms: The SRB assay estimates cell density from bound dye.
Experiment [3] deals with A549. Put plainly: Antiproliferative activity against human A549 cells harboring KRAS G12S mutant assessed as growth inhibition at 10 uM measured after 72 hrs by SRB assay relative to control. Format: functional. The note with it: Homo sapiens, A549, read-out: GI.
Experiment [4] concerns MIA PaCa-2. Put plainly: Antiproliferative activity against human MIA PaCa-2 cells harboring KRAS G12C mutant assessed as growth inhibition at 0.1 uM measured after 72 hrs by CCK8 assay relative to control. Format: functional. Conditions: Homo sapiens, MIA PaCa-2, read-out: GI.
For experiment [5], the system named is MIA PaCa-2. Put plainly: Antiproliferative activity against human MIA PaCa-2 cells harboring KRAS G12C mutant assessed as growth inhibition at 1 uM measured after 72 hrs by CCK8 assay relative to control. Format: functional. Conditions: Homo sapiens, MIA PaCa-2, read-out: GI.
Experiment [6] has as its system A549. Put plainly: Antiproliferative activity against human A549 cells harboring KRAS G12S mutant assessed as growth inhibition at 1 uM measured after 72 hrs by SRB assay relative to control. Format: functional. The note with it: Homo sapiens, A549, read-out: GI.
The target in experiment [7] is GTPase KRas (Homo sapiens, UniProt P01116). Put plainly: Inhibition of recombinant human N-terminal His-tagged KRAS (2 to 185 residues) expressed in baculovirus infected Sf9 insect cells using GTP as substrate measured after 2 hrs by GTPase-glo assay.
A short description of experiment [8]: Inhibition of recombinant human N-terminal polyHis-tagged KRAS isoform 2B G12C mutant (Thr2 to Cys185 residues) expressed in Escherichia coli using GTP as substrate measured after 2 hrs by GTPase-glo assay.
The test system of experiment [9] is MIA PaCa-2. Put plainly: Antiproliferative activity against human MIA PaCa-2 cells harboring KRAS G12C mutant assessed as growth inhibition measured after 72 hrs by CCK8 assay. Format: functional, cell-based.
Experiment [10] has as its system NCI-H358. Put plainly: Antiproliferative activity against human NCI-H358 cells harboring KRAS G12C mutant assessed as growth inhibition measured after 72 hrs by SRB assay. Format: functional, cell-based. Conditions: nci-h358.

Take `CC#CC(=O)N1CCN(c2nc(=O)n(-c3c(C)ccnc3C(C)C)c3cc(-c4c(O)cccc4F)ncc23)[C@@H](C)C1`: the inhibition of growth at 10 µM was 41.8% in experiment [1] and 56.7% in [3]. Besides, the inhibition of growth at 0.1 µM was 3.69% in experiment [2] and 20.2% in experiment [4]. Besides, the inhibition of growth at 1 µM amounted to 19.7% in [5] and 3.57% in experiment [6].
As to `C=CC(=O)N1CCN(c2nc(=O)n(-c3c(C(C)C)cccc3C(C)C)c3c(F)c(-c4c(O)cccc4F)ncc23)[C@@H](C)C1`, the IC50 in [7] and in experiment [8] was more than 10 µM throughout.
For the compound `C=CC(=O)N1CCN(c2nc(=O)n(-c3c(C)ccnc3C(C)C)c3nc4c(cc23)oc2ccc(F)cc24)[C@@H](C)C1`, the inhibition of growth at 10 µM in experiment [1] amounted to 52.8%; in experiment [3] it was 24.6%. Moreover, the inhibition of growth at 0.1 µM in [2] worked out at 2.52%; in experiment [4], 15.9%. Further, the results for the inhibition of growth at 1 µM in experiment [5] and in experiment [6] were 35.4% and 6.97%, respectively. The concentration for half-maximal inhibition (IC50) in experiment [9] (Homo sapiens, MIA PaCa-2, 72 h) was more than 10 µM.
For `C=CC(=O)N1CCN(c2ncnc3c(F)c(-c4c(O)cccc4F)c(Cl)cc23)CC1`, the inhibition of growth at 10 µM was 62.5% in [1] and 31.2% in experiment [3]. Moreover, the inhibition of growth at 0.1 µM in experiment [2] was 8.27%; in experiment [4] it was 21%. Further, the inhibition of growth at 1 µM in experiment [5] is 34.9%; in experiment [6], 6.3%. Besides, the IC50 in experiment [9] (Homo sapiens, MIA PaCa-2, 72 h) is 1.06 µM.
Take `C=CC(=O)N1CCN(c2nc(=O)n(-c3c(C)ccnc3C(C)C)c3nc4c(cc23)oc2cccc(F)c24)[C@@H](C)C1`: the inhibition of growth at 10 µM in experiment [1] is 48.7%; in experiment [3], 28.6%. Also, the inhibition of growth at 0.1 µM in experiment [2] was determined as 7.06%; in experiment [4] it was 35.3%. The inhibition of growth at 1 µM in [5] amounted to 19.3%; in experiment [6], 2.22%.
As to `C=CC(=O)N1CCN(c2nc(=O)n(-c3c(C(C)C)ncnc3C(C)C)c3c(Cl)c(-c4c(O)cccc4F)ncc23)[C@@H](C)C1`, the concentration for half-maximal inhibition (IC50) in [7] and in [8] was more than 10 µM throughout.
For the compound `C=CC(=O)N1C2CCC1CN(c1nc(=O)n(-c3c(C)ccnc3C(C)C)c3nc4c(cc13)oc1cccc(F)c14)C2`, the figures for the inhibition of growth at 10 µM in experiment [1] and in experiment [3] were 53.2% and 35.7%, respectively. The inhibition of growth at 0.1 µM in experiment [2] stood at 4.85%; in experiment [4] it was 8.58%. Moreover, the inhibition of growth at 1 µM is 14.5% in [5] and 9.32% in experiment [6]. Besides, in [9] (Homo sapiens, MIA PaCa-2, 72 h), the 50% inhibitory concentration (IC50) was more than 10 µM.
In the case of `C=C(F)C(=O)N1CCN(c2nc(=O)n(-c3c(C)ccnc3C(C)C)c3cc(-c4c(O)cccc4F)ncc23)[C@@H](C)C1`, the inhibition of growth at 10 µM in experiment [1] came out at 35%; in [3], 19%. The inhibition of growth at 0.1 µM was determined as 5.24% in experiment [2] and 25.1% in experiment [4]. In addition, the values for the inhibition of growth at 1 µM in experiment [5] and in [6] were 29.2% and 5.95%, respectively.
On to `C=CC(=O)N1CCN(c2nc(=O)n(-c3c(C)ccnc3C(C)C)c3c(F)c(-c4c(O)cccc4F)ncc23)[C@@H](C)C1` (stereo in doubt; 26ab), for which the 50% inhibitory concentration (IC50) was more than 10 µM in experiment [7] (sf9), 1.5 µM in experiment [9] (mia paca-2), 3.57 µM in [8] and 0.88 µM in [10].
For `C=CC(=O)N1CCN(c2nc(=O)n(-c3c(C)ccnc3C(C)C)c3nc4c(cc23)oc2cc(F)c(F)cc24)[C@@H](C)C1`, the values for the inhibition of growth at 10 µM in [1] and in experiment [3] were 75.2% and 21.1%, respectively. Besides, the inhibition of growth at 0.1 µM in experiment [2] was -5.33%; in [4], 32.3%. The inhibition of growth at 1 µM in experiment [5] is 6.35%; in experiment [6], 7.03%. Besides, the half-inhibitory concentration (IC50) in [9] (Homo sapiens, MIA PaCa-2, 72 h) was found to be 7.97 µM.
On to `Cc1ccnc(C(C)C)c1-n1c(=O)nc(N2CCN(C(=O)/C=C/CN(C)C)C[C@@H]2C)c2cc3oc4cccc(F)c4c3nc21`, for which the inhibition of growth at 10 µM in experiment [1] worked out at 32%; in experiment [3], 2.64%. Also, the inhibition of growth at 0.1 µM in [2] was determined as 7.85%; in experiment [4], 1.88%. For the same compound, the inhibition of growth at 1 µM amounted to 14.9% in [5] and 2.99% in experiment [6].
For the compound `C=CC(=O)N1CCN(c2nc(=O)n(-c3c(C)ccnc3C(C)C)c3c(F)c(-c4c(O)cccc4F)ncc23)[C@@H](C)C1` (stereo in doubt; 26aa), the IC50 in experiment [7] (sf9) was more than 10 µM; in experiment [9] (mia paca-2), 0.6 µM; in experiment [8], 1.79 µM; in experiment [10], 0.3 µM.
In the case of `C=CC(=O)N1CCN(c2nc(=O)n(-c3c(C)ccnc3C(C)C)c3nc4c(cc23)oc2cccc(O)c24)[C@@H](C)C1`, the inhibition of growth at 10 µM in [1] came out at 9.78%; in experiment [3] it was 23.1%. In addition, the results for the inhibition of growth at 0.1 µM in experiment [2] and in experiment [4] were 32.8% and 1.41%, respectively. Further, the inhibition of growth at 1 µM in experiment [5] turned out to be 1.71%; in experiment [6] it was 35.3%.
`C=C(C(=O)N1CCN(c2nc(=O)n(-c3c(C)ccnc3C(C)C)c3cc(-c4c(O)cccc4F)ncc23)[C@@H](C)C1)C(F)(F)F`: the inhibition of growth at 10 µM in experiment [1] came to 85.5%; in experiment [3], 91.6%. Besides, the inhibition of growth at 0.1 µM in experiment [2] was determined as 2.29%; in [4], 6.23%. In addition, the inhibition of growth at 1 µM was found to be 18.1% in experiment [5] and 6.65% in [6].
As for `CC#CC(=O)N1CCN(c2nc(=O)n(-c3c(C)ccnc3C(C)C)c3nc4c(cc23)oc2cccc(F)c24)[C@@H](C)C1`, the inhibition of growth at 10 µM in [1] came to 27.3%; in experiment [3] it was 22.3%. Besides, the results for the inhibition of growth at 0.1 µM in experiment [2] and in experiment [4] were -1.01% and 0.49%, respectively. The inhibition of growth at 1 µM was 14.2% in experiment [5] and 4.36% in [6].
Turning to `C=CC(=O)N1CCN(c2nc(=O)n(-c3c(C)ccnc3C(C)C)c3nc(-c4c(O)cccc4F)ncc23)[C@@H](C)C1`, the inhibition of growth at 10 µM came out at 49% in experiment [1] and 23% in experiment [3]. For the same compound, the inhibition of growth at 0.1 µM in experiment [2] came to 5.83%; in experiment [4] it was 5.39%. Moreover, the inhibition of growth at 1 µM in experiment [5] was 8.56%; in experiment [6] it was -5.05%.
In the case of `C=CC(=O)N1CCN(c2nc(=O)n(-c3c(C)ccnc3C(C)C)c3nc4c(cc23)oc2ccc(C)cc24)[C@@H](C)C1`, the inhibition of growth at 10 µM amounted to 57.8% in experiment [1] and 27.8% in experiment [3]. For the same compound, the figures for the inhibition of growth at 0.1 µM in experiment [2] and in experiment [4] were 2.95% and 40.6%, respectively. Besides, the inhibition of growth at 1 µM in [5] is 42.7%; in experiment [6], 1.74%. In addition, in [9] (Homo sapiens, MIA PaCa-2, 72 h), the IC50 is more than 10 µM.
Consider `C=CC(=O)N1CCN(c2nc(=O)n(-c3c(C)ccnc3C(C)C)c3cc(-c4c(O)cccc4F)ncc23)[C@@H](C)C1`, for which the inhibition of growth at 10 µM was 64.2% in experiment [1] and 52.7% in experiment [3]. The results for the inhibition of growth at 0.1 µM in experiment [2] and in experiment [4] were 9.11% and 4.05%, respectively. The inhibition of growth at 1 µM in [5] came to 24.8%; in [6] it was 7.53%.
